The values that follow come from patent EP4782437A1, “HETEROARYL COMPOUND, AND PREPARATION METHOD THEREFOR AND USE THEREOF IN MEDICINE” (Jiangsu Hengrui Pharmaceuticals Co., Ltd., priority 2023, dated 2025).

In data set [1] the test system is B cell activation in human whole blood. Description: Inhibition of B cell activation in human whole blood (CD69 expression, flow cytometry). The format is cell-based. As to conditions: anti-human IgD 30 µg/ml + IL-4 5 ng/ml, 18 hours, CD69-positive CD19-positive B cells, read-out: IC50 values of inhibitory activity against B cell activation in human whole blood. An excerpt: Test example 2: Inhibitory activity of compounds of the present disclosure against B cell activation in human whole blood • I. Experimental materials and instruments • 1. Human whole blood (internal recruitment) • 2. Goat F(ab')2 anti-human IgD-UNLB (SouthernBiotech, 2032-01) • 3. DPBS (1x) (Gibco, 14190-144) • 4. Recombinant human IL-4 (Peprotech, 200-04) • 5. Brilliant Violet 421™ anti-human CD19 antibody (Biolegend, 302234) • 6. APC anti-human CD69 antibody (Biolegend, 310910) • 7. APC mouse IgG1, κ isotype control antibody (Biolegend, 400120) • 8. eBioscience™ 10X RBC lysis buffer (multi-species) (Thermo, 004300-54) • 9. NEST 96-well deep-well plate (Wuxi NEST Biotechnology Co., Ltd., 503501) • 10. 96-well round-bottom plate (Corning, 3788) • 11. 96-well flat-bottom plate (Corning, 3599) • 12. Attune™ NxT acoustic focusing cytometer (ThermoFisher Scientific, 4.2.0) • 13. Cell incubator (Thermo, Forma steri-cycle i160) • II. Experimental procedure
B cells express the B cell receptor (BCR) complex on their surface. When B cells in human whole blood are induced to activate, they can trigger the downstream signalling pathways of the receptor and express the activation marker CD69. The expression of CD69 in activated B cells was detected by flow cytometry, and the IC50 of the compounds were calculated to evaluate the effects of the compounds on BCR activation.
The test compounds dissolved in 100% DMSO at 20 mM were diluted with 100% DMSO to a concentration of 1 mM, which represents the 200× concentration of the highest compound concentration point in the reaction system. The compounds at this concentration were then subjected to 8-point 4-fold serial dilution with 100% DMSO. The positive control wells were set with 100% DMSO, whereas the negative control wells were set with Remiburtinib at a final concentration of 5 µM. The serially diluted compounds and 100% DMSO were further diluted 10-fold in PBS to achieve the 20× concentration, followed by thorough mixing.
After thorough mixing, the whole blood sample was transferred to a loading reservoir and then dispensed into a 96-well flat-bottom plate at 80 µl per well. The compound dilution was dispensed at 5 µl per well. The 11th column of each row was designated as the negative control well, with 5 µl of 100 µM positive control drug added to each well. After thorough mixing for 5 min, the plate was incubated in a 37°C incubator for 30 min. Human IgD antibody was diluted 1.67-fold with PBS to a concentration of 300 µg/mL, and 10 µl of the diluted solution was added to each well of the culture plate (final concentration: 30 µg/ml). Human IL-4 (stock solution at 50 µg/ml) was diluted 500-fold with PBS to a concentration of 100 ng/mL, and 5 µl of the diluted solution was added to each well of the culture plate (final concentration: 5 ng/ml). After thorough mixing for 5 min, the plate was cultured in a 37°C incubator with 5% CO2 for 18 hours.
Flow cytometry detection: CD69-APC, CD19-BV421 and CD4-APC antibodies, and the isotype control antibodies for CD69-APC were removed from 4°C storage. Each antibody was added at 1 µl per well. After thorough mixing for 5 min, the plate was incubated for 30 min at 4°C (refrigerator) in the dark for staining. The 10X RBC lysis buffer was diluted in water to prepare 1X RBC lysis buffer. Aliquots of 1 ml of the lysis buffer were dispensed into each well of a 96-well deep-well plate in advance. The stained samples were transferred into the deep-well plate containing the lysis buffer for erythrocyte lysis. After completing the transfer of an entire plate, the plate was incubated in the dark for 15-20 min. Upon completion of lysis, the plate was centrifuged at 2000 rpm for 4 min. Each well was washed with 1 ml of PBS. Subsequently, the cells were resuspended in 200 µl of PBS, transferred to a 96-well plate, and washed twice more using the same procedure. The samples were resuspended in 200 µl of PBS per well and then subjected to flow cytometry detection. […]

Data set [2] addresses hERG potassium channels (Homo sapiens, UniProt Q12809). Kind of data set: in vitro.

Sequence of hERG potassium channels (Q12809 whole entry): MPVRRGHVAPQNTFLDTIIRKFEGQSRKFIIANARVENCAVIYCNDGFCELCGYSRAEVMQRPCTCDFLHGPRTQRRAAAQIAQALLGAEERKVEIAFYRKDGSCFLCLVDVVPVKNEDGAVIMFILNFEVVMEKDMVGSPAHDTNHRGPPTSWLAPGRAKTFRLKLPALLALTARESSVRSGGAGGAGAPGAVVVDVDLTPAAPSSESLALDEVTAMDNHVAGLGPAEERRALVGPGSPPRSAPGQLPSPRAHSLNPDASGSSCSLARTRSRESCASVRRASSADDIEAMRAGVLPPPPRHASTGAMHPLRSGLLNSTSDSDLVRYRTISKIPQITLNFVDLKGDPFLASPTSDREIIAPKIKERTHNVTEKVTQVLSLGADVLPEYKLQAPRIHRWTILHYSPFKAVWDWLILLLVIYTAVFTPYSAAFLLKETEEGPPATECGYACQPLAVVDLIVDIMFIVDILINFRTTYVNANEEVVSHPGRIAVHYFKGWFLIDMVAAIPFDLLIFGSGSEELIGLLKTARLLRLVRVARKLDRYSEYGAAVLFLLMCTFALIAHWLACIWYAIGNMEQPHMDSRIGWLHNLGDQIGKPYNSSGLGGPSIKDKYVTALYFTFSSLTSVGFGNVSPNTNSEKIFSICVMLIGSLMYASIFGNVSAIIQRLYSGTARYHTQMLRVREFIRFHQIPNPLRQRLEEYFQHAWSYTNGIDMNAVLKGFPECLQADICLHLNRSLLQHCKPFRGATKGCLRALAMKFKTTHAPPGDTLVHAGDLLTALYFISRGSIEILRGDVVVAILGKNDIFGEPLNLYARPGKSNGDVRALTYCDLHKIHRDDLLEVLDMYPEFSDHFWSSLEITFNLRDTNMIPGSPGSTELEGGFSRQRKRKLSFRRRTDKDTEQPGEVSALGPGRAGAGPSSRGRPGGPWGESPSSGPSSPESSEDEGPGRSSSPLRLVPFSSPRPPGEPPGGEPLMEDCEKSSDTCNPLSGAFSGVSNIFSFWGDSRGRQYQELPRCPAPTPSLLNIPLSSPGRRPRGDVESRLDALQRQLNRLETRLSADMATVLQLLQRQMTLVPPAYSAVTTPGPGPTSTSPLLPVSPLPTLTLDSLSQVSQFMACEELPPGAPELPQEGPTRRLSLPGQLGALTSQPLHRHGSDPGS

Regarding `C=CC(=O)N(C)CCOc1c(N)ncnc1-c1cc(F)cc(NC(=O)c2cc3c(cc2F)C2(CC2)CO3)c1C` [Example 3, N-(3-(6-amino-5-(2-(N-methacrylamido)ethoxy)pyrimidin-4-yl)-5-fluoro-2-methylphenyl)-5-fluoro-2H-spiro[benzofuran-3,1'-cyclopropane]-6-carboxamide], the IC50 is 10 to 100 nM in data set [1] and > 12300 nM in data set [2].

In general, IC50 refers to the point on the concentration scale where inhibition reaches its midpoint.
